The values below come from patent publication US20130005710A1, “AMINOPYRIDINE DERIVATIVE” (priority 2009, published 2013).

One test has as its system rat mixed glial culture. The experiment in a line: Neurogenesis promoting effect in rat mixed glial culture (neuronal differentiation, beta-tubulin III ELISA). It counts as cell-based. To be noted: Rattus norvegicus, 72 h, 1 μM compound + rhIGF-1 100 ng/ml, 3 days; control (only rhIGF-1) = 100%; absorbance 450 nm; read-out: Ratio of absorbance of compound-supplemented group to control (%). The method, then:
The hippocampus and the cerebral cortex were excised from each of 3-day-old SD rats. A cell suspension was prepared therefrom using a neuron dispersion kit (Sumitomo Bakelite Co., Ltd., MB-X9901) and inoculated at concentration of 10^5 cells/well to a 96-well plate coated with type I collagen (AGC Techno Glass Co., Ltd., 4860-010). The cells were cultured in a growth medium (D-MEM/F12 containing 10% FBS and PS) at 37° C. for 4 days under 5% CO2 conditions.
After the culture, the medium was replaced by a differentiation medium (D-MEM/F12 containing PS), and rhIGF-1 (R&D Systems, 291-G1-250, final concentration: 100 ng/ml) and 1 μM compound were added thereto. The cells were further cultured for 3 days. The cultured cells were fixed in 4% paraformaldehyde-PBS (Muto Pure Chemicals Co., Ltd.), subjected to membrane permeation treatment with 0.1% Triton X-100 PBS, and blocked with Block Ace solution (DS Pharma Biomedical Co., Ltd., UK-B80). Anti-neuron-specific class III beta-tubulin Antibody (R&D Systems, MAB1195, clone Tuj-1) was diluted 1000-fold and used as a primary antibody. Anti-Mouse Ig, HRP-Linked F(ab′)2 Fragment Sheep (GE Healthcare, NA9310) was diluted 10000-fold and used as a secondary antibody. A plate washer (BIO-TEK INSTRUMENTS ELX405) was used in washing operation. TMB Microwell Peroxidase Substrate System (Kirkegaard & Perry Laboratories, 50-76-00) was used in color reaction, which was performed for 10 minutes and stopped by addition of 1 M phosphoric acid. Absorbance at 450 nm was measured using a plate reader (Labsystems Multiskan BICHROMATIC).
The rate of increase in the absorbance of the compound-supplemented group (compound+rhIGF-1) relative to that of a compound-unsupplemented group (control, only rhIGF-1) as 100% was determined in terms of % control.
Background: An ELISA detects its analyte on a solid surface through an enzyme-linked reagent.

The next test concerns Akt. The experiment in a line: Akt protein degradation inhibitory effect in rat mixed glial culture (Western blot). It counts as cell-based. To be noted: 1 μM compound + rhIGF-1 100 ng/ml, 10 minutes; unsupplemented = 100%, only rhIGF-1 = 0%; Akt corrected with ERK. The method, then:
The mixed glial cells used in Experimental Example 1 were inoculated at a concentration of 4×10^6 cells/well to a 6-well plate coated with type I collagen (AGC Techno Glass Co., Ltd.). The cells were cultured in a growth medium (D-MEM/F12 containing 10% FES and PS) at 37° C. for 4 days under 5% CO2 conditions. Then, the medium was replaced by a serum-free medium (D-MEM/F12 containing PS), and the cells were cultured at 37° C. for 4 days under 5% CO2 conditions to remove serum.
Next, rhIGF-1 (R&D Systems, 291-G1-250, final concentration: 100 ng/ml) and 1 μM compound were added thereto and reacted for 10 minutes in a temperature-controlled water bath set to 37° C. […]
Proteins were collected from the cell extracts using trichloroacetic acid and quantified according to the Lowry method. […] The cell extracts were diluted with RIPA so that the protein levels were constant among the test solutions on the basis of the measured values (10 μg/lane). […] Bands were detected using ImmunoStar reagent (Wako Pure Chemical Industries, Ltd., 291-55203) and an X-ray film. The results were quantified using GS-800 Calibrated Densitometer manufactured by Bio-Rad Laboratories, Inc., and band intensity was digitized by multiplying the absorbance of the Akt- or ERK-1&2-derived band by an area. […]
(In western blotting, separated proteins are transferred to a membrane and probed.)

The next test deals with Tg2576 mice. The experiment in a line: Cognitive function improving effect in novel object recognition test. It counts as in vivo, mouse. To be noted: 10 mg/kg/day orally for 3 consecutive weeks, female Tg2576 mice; recovery ratio relative to wild type and vehicle. As to the method:
Eight- to 9-month-old female Tg2576 mice were used, and wild-type littermates were used as control mice. All the mice were raised in a room having a temperature of 23±3° C. and 12-hour light/dark cycles (light phase: 7 a.m. to 7 p.m.) and allowed to freely take food (Oriental Yeast Co., Ld.) and water.
The body weights and blood glucose levels of the Tg2576 mice were measured, and these mice were divided (n=11-15) so that there was no difference among groups. 10 mg/kg/day compound or vehicle (0.5% methylcellulose solution, Wako Pure Chemical Industries, Ltd.) was orally administered to each mouse for 3 consecutive weeks. The following novel object recognition test was conducted (acquisition trial and retention trial were carried under blind): 4 or 5 mice in one cage were placed in a box of 30×30×30 cm and acclimatized for 30 minutes in the absence of objects. On the next day, two identical objects were placed in diagonally opposite corners of the box. The mice were placed in the box, and the time spent exploring the objects for 5 minutes was recorded (acquisition trial). 24 hours later, one of the objects was in turn replaced by a novel one, and the same test as the acquisition trial was conducted (retention trial). During the test, places were appropriately changed between the two objects to minimize environmental/behavioral psychological factors. The ratio of the time spent exploring the novel object to the whole exploring time was calculated as an index showing cognitive functions and used as preference index (PI). Furthermore, a recovery ratio was calculated according to the following formula:
[Recovery ratio]=[[PI of Tg2576 mice treated by each compound]−[PI of Tg2576 mice treated by vehicle]]/[[PI of wild type mice]−[PI of Tg2576 mice treated by vehicle]]×100(%).
In this context, individuals that explored neither of the objects in the acquisition trial and the retention trial were excluded from this test.

For the molecule `COc1ccc(N2CCN(c3ccc(C)cc3)CC2)c(-c2ccc(N(C)C)cc2)n1` [Example 25, 4-{6-methoxy-3-[4-(4-methylphenyl)piperazin-1-yl]pyridin-2-yl}-N,N-dimethylaniline], the activity at 1 µM with rat mixed glial culture is 276%. Besides, the “Akt degradation inhibitory rate (%)” value in the test on Akt stood at 140%. In the test on Tg2576 mice, the “Preference index (% recovery)” value came out at 97.0%.

For the molecule `CCOc1ccc(-c2nc(OC)ccc2N2CCN(c3ccc(OC)cc3)CC2)cc1` [Example 55, 1-[2-(4-ethoxyphenyl)-6-methoxypyridin-3-yl]-4-(4-methoxyphenyl)piperazine], the activity at 1 µM in the test on rat mixed glial culture was determined as 316%. Moreover, in the test with Tg2576 mice, the “Preference index (% recovery)” value is listed as 19.8%.

Take `COc1ccc(N2CCN(c3ccc(F)cc3)CC2)c(-c2ccc(N(C)C)cc2)n1` [Example 12, 4-{3-[4-(4-fluorophenyl)piperazin-1-yl]-6-methoxypyridin-2-yl}-N,N-dimethylaniline]: the activity at 1 µM in the test with rat mixed glial culture stood at 345%. For the same molecule, the “Preference index (% recovery)” value with Tg2576 mice came out at 70.3%.

In the case of `COc1ccc(N2CCN(c3ccc(OC)nc3-c3ccc(N(C)C)cc3)CC2)cc1` [Example 19, 4-{6-methoxy-3-[4-(4-methoxyphenyl)piperazin-1-yl]pyridin-2-yl}-N,N-dimethylaniline], the activity at 1 µM in the test with rat mixed glial culture came out at 263%. Moreover, the “Akt degradation inhibitory rate (%)” value with Akt worked out at 97%. For the same molecule, the “Preference index (% recovery)” value in the test with Tg2576 mice was 118.2%.

Take `COc1ccc(N2CCN(c3ccc(OC)c(OC)c3)CC2)c(-c2ccc(N(C)C)cc2)n1` [Example 26, 4-{3-[4-(3,4-dimethoxyphenyl)piperazin-1-yl]-6-methoxypyridin-2-yl}-N,N-dimethylaniline]: in the test on rat mixed glial culture, the activity at 1 µM is 259%.

For the molecule `CCOc1ccc(-c2nc(OC)ccc2N2CCN(c3ccc(OC)cc3)CC2)cc1F` [Example 62, 1-[2-(4-ethoxy-3-fluorophenyl)-6-methoxypyridin-3-yl]-4-(4-methoxyphenyl)piperazine], in the test on rat mixed glial culture, the activity at 1 µM amounted to 439%.
